Common to all, as to assay type: functional
Test [1] has as its system Raji. Briefly: Antitumor activity against human Raji cells assessed as DNA synthesis at 0.5 ug/mL by [3H]thymidine incorporation assay relative to control. A general note: Uptake of a labelled nucleoside into DNA is a usual measure of proliferation.
Test [2] concerns Raji. Briefly: Antitumor activity against human Raji cells assessed as DNA synthesis at 0.1 ug/mL by [3H]thymidine incorporation assay relative to control.
For test [3], the system named is Raji. Briefly: Cell cycle arrest in human Raji cells assessed as accumulation in S phase at 0.1 ug/mL.
In test [4] the test system is Raji. Nature of the test: Cell cycle arrest in human Raji cells assessed as accumulation in S phase at 1 ug/mL.
Test [5] has as its system Raji. Nature of the test: Antitumor activity against human Raji cells assessed as DNA synthesis at 1 ug/mL by [3H]thymidine incorporation assay relative to control.
Test [6] deals with Raji. Briefly: Cell cycle arrest in human Raji cells assessed as accumulation in S phase at 0.5 ug/mL.

Take `CO[C@H]1[C@@H](O)[C@H](O[C@H]2[C@@H](OC)C[C@H](O[C@H]3[C@@H](OC)C[C@H](O[C@H]4[C@@H](OC)C[C@H](O[C@H]5CC[C@@]6(C)C(=CC[C@]7(O)[C@@H]6C[C@@H](OC(=O)/C=C/c6ccccc6)[C@@]6(C)[C@]7(O)CC[C@@]6(O)C(C)=O)C5)O[C@@H]4C)O[C@@H]3C)O[C@@H]2C)O[C@H](C)[C@H]1O[C@@H]1O[C@H](CO)[C@@H](O)[C@H](O)[C@H]1O`: the Activity in test [1] turned out to be 21%; in test [2], 41%; in test [3], 22%; in test [4] it was 4%; in test [5], 14%; in test [6], 11%.

For `CO[C@H]1[C@@H](O)[C@H](O[C@H]2[C@@H](OC)C[C@H](O[C@H]3[C@@H](OC)C[C@H](O[C@H]4[C@@H](OC)C[C@H](O[C@H]5CC[C@@]6(C)C(=CC[C@]7(O)[C@@H]6C[C@@H](OC(=O)c6ccccc6)[C@@]6(C)[C@]7(O)CC[C@@]6(O)[C@H](C)OC(=O)/C=C/c6ccccc6)C5)O[C@@H]4C)O[C@@H]3C)O[C@@H]2C)O[C@H](C)[C@H]1O[C@@H]1O[C@H](CO)[C@@H](O)[C@H](O)[C@H]1O`, the Activity in test [1] amounted to 14%; in test [2], 15%; in test [3], 4%; in test [4], 4%; in test [5] it was 14%; in test [6], 6%.

As to `COC1C[C@H](O[C@@H]2[C@@H](C)O[C@@H](O[C@H]3[C@@H](OC)C[C@H](O[C@H]4CC[C@@]5(C)C(=CC[C@]6(O)[C@@H]5C[C@@H](OC(C)=O)[C@@]5(C)[C@]6(O)CC[C@@]5(O)[C@H](C)O)C4)O[C@@H]3C)C[C@H]2OC)O[C@H](C)[C@H]1O[C@@H]1O[C@H](C)[C@@H](O[C@@H]2O[C@H](CO)[C@@H](O)[C@H](O)[C@H]2O)[C@@H](OC)[C@H]1O` (single isomer, unassigned), the Activity in test [1] was 89%; in test [2] it was 98%; in test [3], 34%; in test [4], 18%; in test [5] it was 65%; in test [6], 30%.

`COC1C[C@H](O[C@H]2[C@@H](OC)C[C@H](O[C@H]3[C@@H](OC)C[C@H](O[C@H]4CC[C@@]5(C)C(=CC[C@]6(O)[C@@H]5C[C@@H](OC(C)=O)[C@@]5(C)[C@]6(O)CC[C@@]5(O)[C@H](C)O)C4)O[C@@H]3C)O[C@@H]2C)O[C@H](C)[C@H]1O[C@@H]1O[C@H](C)[C@@H](O[C@@H]2O[C@H](CO)[C@@H](O)[C@H](O)[C@H]2O)[C@@H](OC)[C@H]1O` (single isomer, unassigned): the Activity is given as 83% in test [1]; 98% in test [2]; 32% in test [3]; 28% in test [4]; 69% in test [5]; 30% in test [6].

As for `COC1C[C@H](O[C@H]2[C@@H](OC)C[C@H](O[C@H]3[C@@H](OC)C[C@H](O[C@H]4CC[C@@]5(C)C(=CC[C@]6(O)[C@@H]5C[C@@H](OC(=O)/C=C/c5ccccc5)[C@@]5(C)[C@]6(O)CC[C@@]5(O)[C@H](C)O)C4)O[C@@H]3C)O[C@@H]2C)O[C@H](C)[C@H]1O[C@@H]1O[C@H](C)[C@@H](O[C@@H]2O[C@H](CO)[C@@H](O)[C@H](O)[C@H]2O)[C@@H](OC)[C@H]1O` (single isomer, unassigned), the Activity is listed as 33% in test [1]; 59% in test [2]; 33% in test [3]; 10% in test [4]; 16% in test [5]; 18% in test [6].

As to `CO[C@@H]1[C@@H](O)[C@H](O[C@H]2[C@@H](OC)C[C@H](O[C@H]3[C@@H](OC)C[C@H](O[C@H]4[C@@H](OC)C[C@H](O[C@H]5CC[C@@]6(C)C(=CC[C@]7(O)[C@@H]6C[C@@H](OC(=O)c6ccccc6)[C@@]6(C)[C@]7(O)CC[C@@]6(O)[C@H](C)OC(=O)/C=C/c6ccccc6)C5)O[C@@H]4C)O[C@@H]3C)O[C@@H]2C)O[C@H](C)[C@H]1O[C@@H]1O[C@H](CO)[C@@H](O)[C@H](O)[C@H]1O`, the Activity in test [1] amounted to 14%; in test [2], 13%; in test [3], 5%; in test [4] it was 5%; in test [5], 16%; in test [6], 4%.

Turning to `COC1C[C@H](O[C@H]2[C@@H](OC)C[C@H](O[C@H]3[C@@H](OC)C[C@H](O[C@H]4CC[C@@]5(C)C(=CC[C@]6(O)[C@@H]5C[C@@H](OC(C)=O)[C@@]5(C)[C@]6(O)CC[C@@]5(O)C(C)=O)C4)O[C@@H]3C)O[C@@H]2C)O[C@H](C)[C@H]1O[C@@H]1O[C@H](C)[C@@H](O[C@@H]2O[C@H](CO)[C@@H](O)[C@H](O)[C@H]2O)[C@@H](OC)[C@H]1O` (single isomer, unassigned), the Activity in test [1] was 87%; in test [2] it was 98%; in test [3] it was 30%; in test [4] it was 26%; in test [5] it was 69%; in test [6], 28%.

For `COC1C[C@H](O[C@@H]2[C@@H](C)O[C@@H](O[C@H]3[C@@H](OC)C[C@H](O[C@H]4CC[C@@]5(C)C(=CC[C@]6(O)[C@@H]5C[C@@H](OC(=O)/C=C/c5ccccc5)[C@@]5(C)[C@]6(O)CC[C@@]5(O)[C@H](C)OC(=O)c5ccccc5)C4)O[C@@H]3C)C[C@H]2OC)O[C@H](C)[C@H]1O[C@@H]1O[C@H](C)[C@@H](O[C@@H]2O[C@H](CO)[C@@H](O)[C@H](O)[C@H]2O)[C@@H](OC)[C@H]1O` (single isomer, unassigned), the Activity is 16% in test [1]; 16% in test [2]; 6% in test [3]; 3% in test [4]; 15% in test [5]; 5% in test [6].

Values taken from ChEMBL document CHEMBL1158255, “New polyoxypregnane ester derivatives from Leptadenia hastata” (1996).
